Structures can show the parent of a compound that is named as a salt.
Tests used:
dopamine D3 receptor = dopamine D3 receptor (Chlorocebus aethiops, UniProt P52703); test: D3 receptor binding assay (displacement of 3H-YM 09151-2); design: species or system African Green monkey; conditions: 0.5 nM 3H-YM 09151-2; COS cells with recombinant D3 receptors; 0.05M Tris HCl, 100 mM NaCl; nonspecific: 1 mM spiperone
dopamine D2 receptor = dopamine D2 receptor (Chlorocebus aethiops, UniProt P52702); test: D2 receptor binding assay (displacement of 3H-YM 09151-2); design: species or system African Green monkey; conditions: 0.5 nM 3H-YM 09151-2; COS cells with recombinant D2 receptors; 0.05M Tris HCl, 100 mM NaCl; nonspecific: 1 mM spiperone
dopamine D2 receptor, sequence (P52702 whole entry): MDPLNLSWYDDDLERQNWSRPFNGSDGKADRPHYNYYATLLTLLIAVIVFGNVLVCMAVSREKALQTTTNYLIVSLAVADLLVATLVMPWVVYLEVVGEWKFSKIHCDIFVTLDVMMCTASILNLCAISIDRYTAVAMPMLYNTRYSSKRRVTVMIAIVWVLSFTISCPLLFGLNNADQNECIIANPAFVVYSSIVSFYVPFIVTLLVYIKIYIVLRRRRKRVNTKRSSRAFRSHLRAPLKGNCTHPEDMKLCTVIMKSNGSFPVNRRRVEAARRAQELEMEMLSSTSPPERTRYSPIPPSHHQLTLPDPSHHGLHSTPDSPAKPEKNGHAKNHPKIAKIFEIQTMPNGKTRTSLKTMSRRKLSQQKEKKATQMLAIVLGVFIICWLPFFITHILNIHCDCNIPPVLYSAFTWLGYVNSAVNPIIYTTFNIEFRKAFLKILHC

dopamine D3 receptor, sequence (P52703 whole entry): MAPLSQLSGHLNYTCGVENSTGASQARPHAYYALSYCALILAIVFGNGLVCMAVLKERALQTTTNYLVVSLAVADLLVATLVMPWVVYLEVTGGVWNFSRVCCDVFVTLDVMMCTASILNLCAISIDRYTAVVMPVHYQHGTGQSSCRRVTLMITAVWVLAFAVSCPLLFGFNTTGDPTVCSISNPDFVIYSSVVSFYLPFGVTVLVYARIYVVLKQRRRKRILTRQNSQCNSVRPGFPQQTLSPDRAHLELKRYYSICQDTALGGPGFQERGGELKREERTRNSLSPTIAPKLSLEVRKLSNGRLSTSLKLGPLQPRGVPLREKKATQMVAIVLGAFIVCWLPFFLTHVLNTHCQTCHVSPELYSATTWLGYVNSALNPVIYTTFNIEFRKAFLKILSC

| SMILES | Ki (dopamine D3 receptor) | Ki (dopamine D2 receptor) |
| --- | --- | --- |
| O=C(NCCCCN1CCN(c2cccc3ccccc23)CC1)c1ccc2cc3ccccc3cc2c1 [Compound 2, N-{4-[4-(1-Naphthyl)-1-piperazinyl]butyl}-2-anthracenecarboxamide hydrochloride] | 1.2 nM | 550 nM |
| O=C(NCCCCN1CCN(c2cccc(Cl)c2Cl)CC1)c1ccc2cc3ccccc3cc2c1 [Compound 1, N-{4-[4-(2,3-Dichlorophenyl)-1-piperazinyl]butyl}-2-anthracenecarboxamide] | 7 nM | 1090 nM |
